Data: ChEMBL document CHEMBL4507257, “Data for DCP probe ABT-100” (2021)
Active and inactive are the calls of the source.

Legend:
[1] = target: Protein farnesyltransferase (Bos taurus, UniProt P29702+P49355); test: (§1) Scintillation proximity assay (SPA); format: protein-complex assay
[2] = target: D(1B) dopamine receptor (Homo sapiens) (UniProt P21918); test: D5 (h) Ligand binding assay; settings: Compound concentration 10.0 uM
[3] = target: T1, 5-hydroxytryptamine receptor 2C (Homo sapiens) (UniProt P28335); test: 5-HT2C (h) Ligand binding assay; settings: Compound concentration 10.0 uM
T1 sequence (whole entry): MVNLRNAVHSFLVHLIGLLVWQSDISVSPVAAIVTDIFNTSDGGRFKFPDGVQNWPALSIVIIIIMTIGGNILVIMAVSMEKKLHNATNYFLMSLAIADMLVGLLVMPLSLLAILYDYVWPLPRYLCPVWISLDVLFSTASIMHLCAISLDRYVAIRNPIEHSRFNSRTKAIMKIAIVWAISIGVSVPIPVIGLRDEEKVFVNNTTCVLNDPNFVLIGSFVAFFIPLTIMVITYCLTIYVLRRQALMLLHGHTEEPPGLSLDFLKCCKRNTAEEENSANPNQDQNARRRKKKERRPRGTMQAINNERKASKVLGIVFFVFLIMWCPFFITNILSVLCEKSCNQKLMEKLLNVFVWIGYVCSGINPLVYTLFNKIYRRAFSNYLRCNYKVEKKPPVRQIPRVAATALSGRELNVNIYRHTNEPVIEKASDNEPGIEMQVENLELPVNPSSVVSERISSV

[4] = as §1; design: species or system Homo sapiens
[5] = target: P2Y receptor (Homo sapiens) (UniProt Q9H244+P51582+P47900+P41231+Q15391+Q15077+Q96G91+Q9BPV8); test: P2Y Ligand binding assay; format: protein assay; settings: Compound concentration 10.0 uM
[6] = target: Cannabinoid receptor 1 (Homo sapiens) (UniProt P21554); test: CB1 (h) (central) Ligand binding assay
[7] = target: Cannabinoid receptor 2 (Homo sapiens) (UniProt P34972); test: CB2 (h) (peripheral) Ligand binding assay; settings: Compound concentration 10.0 uM
[8] = target: 5-hydroxytryptamine receptor 2A (Homo sapiens) (UniProt P28223); test: 5-HT2A (h) Ligand binding assay; settings: Compound concentration 10.0 uM
[9] = target: Serine/threonine-protein kinase Nek7 (Homo sapiens, UniProt Q8TDX7); test: Inhibition of NEK7 at compound concentration of 10.0 uM using the ScanMax (DiscoverX)
[10] = target: Kappa-type opioid receptor (Homo sapiens) (UniProt P41145); test: Kappa (h) Ligand binding assay; settings: Compound concentration 10.0 uM
[11] = target: D(1B) dopamine receptor (Homo sapiens) (UniProt P21918); settings: Compound concentration 10.0 uM
[12] = target: Serine/threonine-protein kinase BRSK2 (Homo sapiens, UniProt Q8IWQ3); test: Inhibition of BRSK2 at compound concentration of 10.0 uM using the ScanMax (DiscoverX)
[13] = target: C-C chemokine receptor type 1 (Homo sapiens) (UniProt P32246); test: CCR1 (h) Ligand binding assay; settings: Compound concentration 10.0 uM
[14] = target: Pituitary adenylate cyclase-activating polypeptide type I receptor (Homo sapiens) (UniProt P41586); test: PACAP[…] (h) Ligand binding assay; settings: Compound concentration 10.0 uM
[15] = target: voltage-dependent potassium channel (Homo sapiens, UniProt O43525+O43526+O95259+P16389+P17658+P22001+P22459+P22460+P48547+P51787+P56696+Q03721+Q09470+Q12809+Q14003+Q14721+Q16322+Q6PIU1+Q8NCM2+Q8TAE7+Q8TDN1+Q8TDN2+Q92953+Q96KK3+Q96L42+Q96PR1+Q96RP8+Q9BQ31+Q9H252+Q9H3M0+Q9NR82+Q9NS40+Q9NSA2+Q9NZV8+Q9UIX4+Q9UJ96+Q9UK17+Q9ULD8+Q9ULS6+Q9UQ05); test: K+ channel (Volt-dependent) Ligand binding assay; format: protein assay; settings: compound concentration 10 uM
[16] = target: L-type calcium channel (verapamil site) (Homo sapiens, UniProt O60840+Q01668+Q13698+Q13936); test: Ca2+ channel (L verapamil site) Ligand binding assay; format: protein assay
[17] = target: Sodium-dependent noradrenaline transporter (Homo sapiens) (UniProt P23975); test: NE uptake (h) Ligand binding assay
[18] = target: Beta-2 adrenergic receptor (Homo sapiens) (UniProt P07550); test: beta2 (h) Ligand binding assay; settings: Compound concentration 10.0 uM
[19] = target: Sodium-dependent dopamine transporter (Homo sapiens) (UniProt Q01959); test: DA uptake (h) Ligand binding assay
[20] = Cl- ionophore Ligand binding assay
[21] = target: Sigma receptor (Homo sapiens) (UniProt Q99720+Q5BJF2); test: Sigma (non selective) Ligand binding assay; format: protein assay
[22] = target: Muscarinic acetylcholine receptor M3 (Homo sapiens) (UniProt P20309); test: M3 (h) Ligand binding assay; settings: Compound concentration 10.0 uM
[23] = target: Adrenergic receptor alpha-1 (Homo sapiens) (UniProt P35348+P25100+P35368); test: alpha1 (non-selective) Ligand binding assay; format: protein assay; settings: Compound concentration 10.0 uM
[24] = target: T2, D(4) dopamine receptor (Homo sapiens) (UniProt P21917); test: D4.4 (h) Ligand binding assay; settings: Compound concentration 10.0 uM
T2 sequence (whole entry): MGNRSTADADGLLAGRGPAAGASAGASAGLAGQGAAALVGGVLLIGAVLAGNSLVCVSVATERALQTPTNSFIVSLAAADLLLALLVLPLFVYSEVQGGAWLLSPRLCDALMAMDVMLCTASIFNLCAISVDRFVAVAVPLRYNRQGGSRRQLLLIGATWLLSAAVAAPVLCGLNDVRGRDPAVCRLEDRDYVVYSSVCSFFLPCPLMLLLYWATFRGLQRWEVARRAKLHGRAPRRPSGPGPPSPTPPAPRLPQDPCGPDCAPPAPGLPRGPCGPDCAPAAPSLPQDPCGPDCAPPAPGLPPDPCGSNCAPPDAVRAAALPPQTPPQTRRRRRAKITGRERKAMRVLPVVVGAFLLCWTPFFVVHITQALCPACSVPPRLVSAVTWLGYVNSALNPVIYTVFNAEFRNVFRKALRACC

[25] = target: Endothelin-1 receptor (Homo sapiens) (UniProt P25101); test: ETA (h) Ligand binding assay; settings: Compound concentration 10.0 uM
Histamine H1 receptor = Histamine H1 receptor (Homo sapiens, UniProt P35367); test: H1 (central) Ligand binding assay; settings: Compound concentration 10.0 uM
[26] = target: Prostacyclin receptor (Homo sapiens) (UniProt P43119); test: PGI2 (h) Ligand binding assay; settings: Compound concentration 10.0 uM
Sequence of Prostacyclin receptor (Homo sapiens) (P43119 whole entry): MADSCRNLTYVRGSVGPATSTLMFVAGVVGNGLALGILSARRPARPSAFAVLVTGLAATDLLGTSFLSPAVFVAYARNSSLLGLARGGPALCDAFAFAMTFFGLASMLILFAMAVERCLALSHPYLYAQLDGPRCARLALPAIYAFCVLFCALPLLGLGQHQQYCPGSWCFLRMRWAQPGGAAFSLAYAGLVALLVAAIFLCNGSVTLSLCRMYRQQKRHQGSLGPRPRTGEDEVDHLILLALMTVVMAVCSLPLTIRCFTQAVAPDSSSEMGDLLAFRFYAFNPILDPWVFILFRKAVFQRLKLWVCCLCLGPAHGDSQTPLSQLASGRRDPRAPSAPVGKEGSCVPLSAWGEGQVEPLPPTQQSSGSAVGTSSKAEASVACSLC

Sequence of Cannabinoid receptor 1 (Homo sapiens) (P21554 whole entry): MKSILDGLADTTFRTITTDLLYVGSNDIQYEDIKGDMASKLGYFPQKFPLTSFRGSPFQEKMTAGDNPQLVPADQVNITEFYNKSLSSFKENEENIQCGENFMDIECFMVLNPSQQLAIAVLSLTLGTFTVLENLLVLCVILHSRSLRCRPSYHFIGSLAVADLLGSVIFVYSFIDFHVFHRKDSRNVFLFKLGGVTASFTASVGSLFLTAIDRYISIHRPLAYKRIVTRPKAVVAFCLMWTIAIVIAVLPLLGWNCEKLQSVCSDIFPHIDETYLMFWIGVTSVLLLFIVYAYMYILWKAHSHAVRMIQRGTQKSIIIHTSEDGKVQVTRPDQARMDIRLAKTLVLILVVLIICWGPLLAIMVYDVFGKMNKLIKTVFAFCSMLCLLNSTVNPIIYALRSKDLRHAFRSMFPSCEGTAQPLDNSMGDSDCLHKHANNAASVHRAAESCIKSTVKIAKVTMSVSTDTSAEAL
Sequence of Sodium-dependent dopamine transporter (Homo sapiens) (Q01959 whole entry): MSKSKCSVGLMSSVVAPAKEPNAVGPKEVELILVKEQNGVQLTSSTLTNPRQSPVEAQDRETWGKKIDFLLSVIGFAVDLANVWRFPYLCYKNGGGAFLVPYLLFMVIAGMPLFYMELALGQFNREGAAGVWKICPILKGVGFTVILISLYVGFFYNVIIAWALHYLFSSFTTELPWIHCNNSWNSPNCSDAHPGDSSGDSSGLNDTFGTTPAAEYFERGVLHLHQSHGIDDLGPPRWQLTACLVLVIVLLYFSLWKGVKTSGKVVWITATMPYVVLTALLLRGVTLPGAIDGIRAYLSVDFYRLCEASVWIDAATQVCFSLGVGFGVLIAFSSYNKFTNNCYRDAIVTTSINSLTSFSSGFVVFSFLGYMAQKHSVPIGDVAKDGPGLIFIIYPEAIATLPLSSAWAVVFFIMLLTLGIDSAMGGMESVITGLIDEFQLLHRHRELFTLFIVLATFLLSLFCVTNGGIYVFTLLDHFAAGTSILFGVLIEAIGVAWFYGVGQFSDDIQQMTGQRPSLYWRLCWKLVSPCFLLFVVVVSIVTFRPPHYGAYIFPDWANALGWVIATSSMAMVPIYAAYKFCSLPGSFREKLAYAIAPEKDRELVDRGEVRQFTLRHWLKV
Sequence of Sodium-dependent noradrenaline transporter (Homo sapiens) (P23975 whole entry): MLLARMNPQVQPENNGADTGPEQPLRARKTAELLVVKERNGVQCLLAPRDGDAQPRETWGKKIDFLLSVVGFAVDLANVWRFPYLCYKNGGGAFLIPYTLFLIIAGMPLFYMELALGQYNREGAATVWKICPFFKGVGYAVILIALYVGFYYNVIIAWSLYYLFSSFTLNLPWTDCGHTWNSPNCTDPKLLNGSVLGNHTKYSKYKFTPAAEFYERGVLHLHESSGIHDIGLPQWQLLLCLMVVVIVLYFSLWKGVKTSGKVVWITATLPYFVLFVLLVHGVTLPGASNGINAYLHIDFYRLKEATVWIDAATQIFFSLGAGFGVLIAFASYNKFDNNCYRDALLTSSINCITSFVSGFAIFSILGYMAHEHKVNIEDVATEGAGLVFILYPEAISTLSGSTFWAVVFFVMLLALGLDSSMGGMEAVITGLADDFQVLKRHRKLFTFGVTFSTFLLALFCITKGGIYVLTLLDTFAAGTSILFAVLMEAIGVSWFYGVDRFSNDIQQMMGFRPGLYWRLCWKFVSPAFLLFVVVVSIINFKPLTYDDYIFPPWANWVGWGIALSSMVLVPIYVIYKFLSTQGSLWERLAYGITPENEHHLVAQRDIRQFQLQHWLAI
Sequence of D(1B) dopamine receptor (Homo sapiens) (P21918 whole entry): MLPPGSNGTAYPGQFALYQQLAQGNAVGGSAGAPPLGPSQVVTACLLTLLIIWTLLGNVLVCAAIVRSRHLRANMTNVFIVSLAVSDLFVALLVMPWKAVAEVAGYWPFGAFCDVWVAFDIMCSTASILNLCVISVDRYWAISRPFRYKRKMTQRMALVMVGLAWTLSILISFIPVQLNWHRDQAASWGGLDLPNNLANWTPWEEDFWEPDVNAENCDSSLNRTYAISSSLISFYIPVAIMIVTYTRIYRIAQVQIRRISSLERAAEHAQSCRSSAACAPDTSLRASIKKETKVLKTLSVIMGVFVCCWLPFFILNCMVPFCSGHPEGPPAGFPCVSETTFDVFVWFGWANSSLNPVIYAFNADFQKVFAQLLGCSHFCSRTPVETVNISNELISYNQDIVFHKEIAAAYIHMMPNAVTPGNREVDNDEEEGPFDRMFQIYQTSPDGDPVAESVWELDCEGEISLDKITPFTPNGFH
Sequence of Sigma receptor (Homo sapiens) (Q5BJF2 whole entry, looked up): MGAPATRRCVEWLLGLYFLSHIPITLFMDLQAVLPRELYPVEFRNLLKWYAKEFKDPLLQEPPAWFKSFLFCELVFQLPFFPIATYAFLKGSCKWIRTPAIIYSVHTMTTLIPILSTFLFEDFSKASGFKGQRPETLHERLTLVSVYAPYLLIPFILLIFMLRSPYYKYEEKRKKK
Sequence of Sigma receptor (Homo sapiens) (Q99720 whole entry, looked up): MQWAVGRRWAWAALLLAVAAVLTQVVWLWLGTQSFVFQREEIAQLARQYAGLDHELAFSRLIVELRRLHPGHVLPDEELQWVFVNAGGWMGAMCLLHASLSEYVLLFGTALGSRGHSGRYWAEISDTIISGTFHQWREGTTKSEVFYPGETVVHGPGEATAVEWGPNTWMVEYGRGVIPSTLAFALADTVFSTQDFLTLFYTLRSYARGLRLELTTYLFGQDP
Sequence of Endothelin-1 receptor (Homo sapiens) (P25101 whole entry): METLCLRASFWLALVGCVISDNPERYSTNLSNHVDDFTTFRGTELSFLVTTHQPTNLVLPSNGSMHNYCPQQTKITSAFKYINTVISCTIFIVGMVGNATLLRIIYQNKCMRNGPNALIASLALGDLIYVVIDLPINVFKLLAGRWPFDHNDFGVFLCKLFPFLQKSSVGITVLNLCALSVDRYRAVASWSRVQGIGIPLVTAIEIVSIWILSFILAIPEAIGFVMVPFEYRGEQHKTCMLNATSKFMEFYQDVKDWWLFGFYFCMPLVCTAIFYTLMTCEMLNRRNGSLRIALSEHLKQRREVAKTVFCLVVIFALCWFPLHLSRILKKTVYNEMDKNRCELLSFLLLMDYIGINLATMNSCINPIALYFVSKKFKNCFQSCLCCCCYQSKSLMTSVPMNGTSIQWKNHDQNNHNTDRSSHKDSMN
Sequence of Pituitary adenylate cyclase-activating polypeptide type I receptor (Homo sapiens) (P41586 21-468 limits assumed): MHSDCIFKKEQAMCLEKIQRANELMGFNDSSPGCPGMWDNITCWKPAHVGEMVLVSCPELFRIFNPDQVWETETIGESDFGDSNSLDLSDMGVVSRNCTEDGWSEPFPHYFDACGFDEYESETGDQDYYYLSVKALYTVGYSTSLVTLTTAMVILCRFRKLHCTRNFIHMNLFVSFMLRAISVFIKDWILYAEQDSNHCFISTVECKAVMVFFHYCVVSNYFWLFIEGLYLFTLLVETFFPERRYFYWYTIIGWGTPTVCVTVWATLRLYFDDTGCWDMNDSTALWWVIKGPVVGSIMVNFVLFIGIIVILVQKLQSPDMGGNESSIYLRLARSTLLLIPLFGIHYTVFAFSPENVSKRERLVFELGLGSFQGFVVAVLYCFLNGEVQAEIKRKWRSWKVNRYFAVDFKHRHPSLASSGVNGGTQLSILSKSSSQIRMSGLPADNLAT
Sequence of Serine/threonine-protein kinase Nek7 (Q8TDX7 whole entry): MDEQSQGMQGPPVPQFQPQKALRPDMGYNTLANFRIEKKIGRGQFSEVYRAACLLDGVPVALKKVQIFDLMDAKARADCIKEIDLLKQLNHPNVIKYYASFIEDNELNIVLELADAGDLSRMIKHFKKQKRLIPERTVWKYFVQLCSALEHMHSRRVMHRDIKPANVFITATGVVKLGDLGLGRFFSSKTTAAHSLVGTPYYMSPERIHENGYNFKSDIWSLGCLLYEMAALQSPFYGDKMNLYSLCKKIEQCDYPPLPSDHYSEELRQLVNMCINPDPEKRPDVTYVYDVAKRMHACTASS
Sequence of Muscarinic acetylcholine receptor M3 (Homo sapiens) (P20309 whole entry, looked up): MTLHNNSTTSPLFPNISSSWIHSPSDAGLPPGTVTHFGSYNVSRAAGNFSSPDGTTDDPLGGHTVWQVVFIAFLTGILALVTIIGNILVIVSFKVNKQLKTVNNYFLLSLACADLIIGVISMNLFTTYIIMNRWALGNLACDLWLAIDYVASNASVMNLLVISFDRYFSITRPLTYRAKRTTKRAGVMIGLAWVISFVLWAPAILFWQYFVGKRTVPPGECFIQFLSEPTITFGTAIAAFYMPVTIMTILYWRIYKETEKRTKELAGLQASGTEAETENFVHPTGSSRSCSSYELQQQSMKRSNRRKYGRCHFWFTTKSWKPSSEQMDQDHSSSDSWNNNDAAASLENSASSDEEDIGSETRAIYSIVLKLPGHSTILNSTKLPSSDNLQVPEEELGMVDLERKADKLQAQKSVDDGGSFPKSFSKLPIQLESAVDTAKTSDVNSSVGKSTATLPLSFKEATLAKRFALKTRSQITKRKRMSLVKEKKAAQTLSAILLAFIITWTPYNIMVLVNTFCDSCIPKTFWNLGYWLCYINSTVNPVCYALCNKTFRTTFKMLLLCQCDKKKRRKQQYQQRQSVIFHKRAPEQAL

Cn1cncc1[C@@](O)(COc1ccc(C#N)cc1-c1ccc(OC(F)(F)F)cc1)c1ccc(C#N)cc1 [A-108]
> 0.1 µM (not active): IC50 [1]

Cn1cncc1[C@](O)(COc1ccc(C#N)cc1-c1ccc(OC(F)(F)F)cc1)c1ccc(C#N)cc1 [ABT-100]
< 10% (not active): inhibition at 10 µM [15]
inactive: inhibition [3] < 10% | inhibition [5] < 10% | inhibition ([6]; Compound concentration 1.0 uM) 23% | inhibition ([6]; Compound concentration 3.0 uM) 45% | inhibition [7] < 10% | inhibition [8] 15% | inhibition [10] 36% | inhibition [11] 4.79% | inhibition [13] < 10% | inhibition [14] < 10% | inhibition ([17]; Compound concentration 3.0 uM) 45% | inhibition [18] 10% | inhibition ([19]; Compound concentration 1.0 uM) 21% | inhibition ([19]; Compound concentration 3.0 uM) 41% | inhibition ([20]; Compound concentration 3.0 uM) 30% | inhibition ([21]; Compound concentration 3.0 uM) 28% | inhibition [22] < 10% | inhibition [23] < 10% | inhibition [24] < 10% | inhibition [25] < 10% | inhibition (Histamine H1 receptor) < 10% | inhibition [26] < 10%
37% (not active): inhibition at 3 µM ([16]; compound concentration 3 uM)
10% (not active): inhibition at 1 µM ([16]; compound concentration 1 uM)
60%: inhibition at 10 µM ([16]; compound concentration 10 uM)
> 10 µM (not active): Kd [9] | Kd [12]
active: inhibition [2] 54% | IC50 [4] 0.05 nM | inhibition ([6]; Compound concentration 10.0 uM) 68% | inhibition ([17]; Compound concentration 10.0 uM) 74% | inhibition ([19]; Compound concentration 10.0 uM) 75% | inhibition ([20]; Compound concentration 10.0 uM) 67% | inhibition ([21]; Compound concentration 10.0 uM) 67%
